Legend:
[1] = target: Bifidobacterium bifidum lactase, parent, SEQ ID NO: 1 (Bifidobacterium bifidum, UniProt A4K5H9); assay: galactose inhibition assay (GI-IF), ONPG hydrolysis with and without D-(+)-Galactose (80 mM), Abs405; assay type: biochemical; settings: ONPG 10.66 mM, MES 100 mM, pH 6.0, 30 min at 23° C., normalized reference
Procedure: (§1) Stop solution is added (Na2CO3, 10% w/v in H2O), and the absorbance at 405 nm is recorded. “Abs405 Galactose sample” is the absorbance for the lactase grown in assay solution, “Abs405 Galactose Blank” is the absorbance for non-inoculated assay solution, “Abs405 Reference sample” is the absorbance for the lactase grown in reference solution, and “Abs405 Reference Blank” is the absorbance for non-inoculated reference solution.

[2] = target: Bifidobacterium bifidum lactase (SEQ ID NO: 1) variant E2G (Bifidobacterium bifidum, UniProt A4K5H9, E34G); assay type: biochemical; settings: D-(+)-Galactose 80 mM, ONPG 10.66 mM, pH 6.0, 30 min at 23° C., ratio of activity with/without galactose relative to wild type SEQ ID NO: 1 (IF=1.0), above 1 = decreased galactose inhibition
Procedure: as §1

[3] = target: Bifidobacterium bifidum lactase (SEQ ID NO: 1) variant V1D (Bifidobacterium bifidum, UniProt A4K5H9, V33D); assay type: biochemical; settings: D-(+)-Galactose 80 mM, ONPG 10.66 mM, pH 6.0, 30 min at 23° C., ratio of activity with/without galactose relative to wild type SEQ ID NO: 1 (IF=1.0), above 1 = decreased galactose inhibition
Procedure: as §1

[4] = target: Bifidobacterium bifidum lactase (SEQ ID NO: 1) variant V1F (Bifidobacterium bifidum, UniProt A4K5H9, V33F); assay type: biochemical; settings: D-(+)-Galactose 80 mM, ONPG 10.66 mM, pH 6.0, 30 min at 23° C., ratio of activity with/without galactose relative to wild type SEQ ID NO: 1 (IF=1.0), above 1 = decreased galactose inhibition
Procedure: as §1

[5] = target: Bifidobacterium bifidum lactase (SEQ ID NO: 1) variant V1K (Bifidobacterium bifidum, UniProt A4K5H9, V33K); assay type: biochemical; settings: D-(+)-Galactose 80 mM, ONPG 10.66 mM, pH 6.0, 30 min at 23° C., ratio of activity with/without galactose relative to wild type SEQ ID NO: 1 (IF=1.0), above 1 = decreased galactose inhibition
Procedure: as §1

[6] = target: Bifidobacterium bifidum lactase (SEQ ID NO: 1) variant V1R (Bifidobacterium bifidum, UniProt A4K5H9, V33R); assay type: biochemical; settings: D-(+)-Galactose 80 mM, ONPG 10.66 mM, pH 6.0, 30 min at 23° C., ratio of activity with/without galactose relative to wild type SEQ ID NO: 1 (IF=1.0), above 1 = decreased galactose inhibition
Procedure: as §1

[7] = target: T1, Bifidobacterium bifidum lactase of SEQ ID NO: 1, variant G856E (Bifidobacterium bifidum, UniProt A4K5H9, G888E); assay: biochemical
T1 construct: purified sample
T1 sequence (A4K5H9 33-1336 G888E): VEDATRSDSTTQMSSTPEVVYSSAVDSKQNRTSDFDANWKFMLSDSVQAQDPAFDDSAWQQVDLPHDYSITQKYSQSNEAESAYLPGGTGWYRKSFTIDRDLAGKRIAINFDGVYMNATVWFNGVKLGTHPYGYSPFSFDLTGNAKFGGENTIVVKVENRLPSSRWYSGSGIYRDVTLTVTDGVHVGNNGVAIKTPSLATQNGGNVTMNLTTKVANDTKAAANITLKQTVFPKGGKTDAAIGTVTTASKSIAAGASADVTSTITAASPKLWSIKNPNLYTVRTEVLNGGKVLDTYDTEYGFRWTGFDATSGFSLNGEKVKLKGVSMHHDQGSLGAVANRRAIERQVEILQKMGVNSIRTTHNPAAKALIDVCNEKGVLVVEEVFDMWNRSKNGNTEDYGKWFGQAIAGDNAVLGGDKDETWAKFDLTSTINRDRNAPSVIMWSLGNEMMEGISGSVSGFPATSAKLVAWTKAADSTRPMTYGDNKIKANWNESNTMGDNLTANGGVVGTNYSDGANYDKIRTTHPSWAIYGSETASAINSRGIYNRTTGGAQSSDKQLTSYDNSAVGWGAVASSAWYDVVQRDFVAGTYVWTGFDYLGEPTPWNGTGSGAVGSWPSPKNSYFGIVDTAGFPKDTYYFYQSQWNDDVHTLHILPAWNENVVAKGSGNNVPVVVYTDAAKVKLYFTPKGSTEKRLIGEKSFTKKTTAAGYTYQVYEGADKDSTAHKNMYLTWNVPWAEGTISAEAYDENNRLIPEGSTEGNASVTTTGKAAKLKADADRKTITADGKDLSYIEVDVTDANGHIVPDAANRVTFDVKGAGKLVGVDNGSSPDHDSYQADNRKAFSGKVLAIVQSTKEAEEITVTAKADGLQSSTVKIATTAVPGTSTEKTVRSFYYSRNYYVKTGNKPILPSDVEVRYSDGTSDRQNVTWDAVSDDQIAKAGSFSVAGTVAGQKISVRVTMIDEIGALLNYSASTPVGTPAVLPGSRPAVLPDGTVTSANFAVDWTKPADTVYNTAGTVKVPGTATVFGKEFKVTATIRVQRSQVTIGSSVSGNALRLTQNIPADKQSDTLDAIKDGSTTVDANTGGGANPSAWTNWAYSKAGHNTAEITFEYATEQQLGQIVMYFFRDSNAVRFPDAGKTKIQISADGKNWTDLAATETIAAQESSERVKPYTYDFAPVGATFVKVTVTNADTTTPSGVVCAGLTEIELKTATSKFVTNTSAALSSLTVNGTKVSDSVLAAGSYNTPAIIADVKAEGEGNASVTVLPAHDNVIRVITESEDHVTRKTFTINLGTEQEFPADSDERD
Excerpt: (§2) *Note regarding backbone: Some clones of our template backbone for the site saturation library (SEQ ID NO: 1) contain a G856E mutation, so all substitution variants we describe are in the backbone context of SEQ ID NO: 1 with either Gly or Glu at position 856.

[8] = system: Bifidobacterium bifidum lactase of SEQ ID NO: 1, variant G856E; assay: biochemical; settings: pH 6.5; E856 relative to G856
Excerpt: as §2

[9] = target: T2, Bifidobacterium bifidum lactase, SEQ ID NO: 1 (G856 backbone) (Bifidobacterium bifidum, UniProt A4K5H9); assay: biochemical
T2 construct: purified sample
Excerpt: as §2

[10] = system: Bifidobacterium bifidum lactase of SEQ ID NO: 1, variant G856E; assay: Km at pH 6.5, backbone with Glu at position 856 (purified samples); assay type: biochemical; settings: E856 relative to G856
Excerpt: as §2

Sequence of Bifidobacterium bifidum lactase (SEQ ID NO: 1) variant V1K (A4K5H9 entry or part of it V33K): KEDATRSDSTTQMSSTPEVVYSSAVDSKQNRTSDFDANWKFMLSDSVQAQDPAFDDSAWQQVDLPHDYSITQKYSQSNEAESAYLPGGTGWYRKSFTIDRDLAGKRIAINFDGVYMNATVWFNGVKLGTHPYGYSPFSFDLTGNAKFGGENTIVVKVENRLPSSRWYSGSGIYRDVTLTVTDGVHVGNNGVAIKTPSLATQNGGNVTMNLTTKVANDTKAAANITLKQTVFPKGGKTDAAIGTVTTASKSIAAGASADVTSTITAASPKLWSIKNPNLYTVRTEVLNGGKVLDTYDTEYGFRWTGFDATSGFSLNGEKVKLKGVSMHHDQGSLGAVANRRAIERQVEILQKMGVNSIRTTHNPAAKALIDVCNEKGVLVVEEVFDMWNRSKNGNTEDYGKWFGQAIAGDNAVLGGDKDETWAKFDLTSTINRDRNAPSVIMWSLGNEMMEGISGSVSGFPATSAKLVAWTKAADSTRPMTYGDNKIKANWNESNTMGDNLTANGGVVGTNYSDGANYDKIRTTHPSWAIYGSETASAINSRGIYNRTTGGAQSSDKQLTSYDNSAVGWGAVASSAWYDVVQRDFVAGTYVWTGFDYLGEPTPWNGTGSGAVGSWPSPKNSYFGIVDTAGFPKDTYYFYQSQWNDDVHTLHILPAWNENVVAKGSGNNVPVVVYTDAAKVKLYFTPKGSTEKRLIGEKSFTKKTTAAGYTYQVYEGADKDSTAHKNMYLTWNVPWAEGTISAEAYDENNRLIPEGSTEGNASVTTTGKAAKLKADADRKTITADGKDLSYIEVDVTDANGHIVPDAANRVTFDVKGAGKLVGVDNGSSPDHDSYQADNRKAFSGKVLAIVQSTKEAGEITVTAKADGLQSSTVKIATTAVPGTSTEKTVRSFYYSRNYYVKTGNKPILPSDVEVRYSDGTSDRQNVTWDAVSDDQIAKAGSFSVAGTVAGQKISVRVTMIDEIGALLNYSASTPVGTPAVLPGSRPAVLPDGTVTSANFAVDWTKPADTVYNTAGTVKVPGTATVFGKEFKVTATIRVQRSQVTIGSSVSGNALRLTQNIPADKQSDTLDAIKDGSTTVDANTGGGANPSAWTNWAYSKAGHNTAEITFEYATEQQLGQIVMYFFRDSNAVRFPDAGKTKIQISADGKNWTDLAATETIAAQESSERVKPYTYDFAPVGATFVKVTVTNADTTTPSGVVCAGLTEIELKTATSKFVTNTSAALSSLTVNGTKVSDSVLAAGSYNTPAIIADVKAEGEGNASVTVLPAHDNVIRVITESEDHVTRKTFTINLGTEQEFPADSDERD
Sequence of Bifidobacterium bifidum lactase (SEQ ID NO: 1) variant V1R (A4K5H9 entry or part of it V33R): as the sequence (A4K5H9 entry or part of it V33K) above, with K1R counted along it
Sequence of Bifidobacterium bifidum lactase (SEQ ID NO: 1) variant E2G (A4K5H9 entry or part of it E34G): as the sequence (A4K5H9 entry or part of it V33K) above, with K1V, E2G counted along it
T2 sequence (A4K5H9 entry or part of it): as the sequence (A4K5H9 entry or part of it V33K) above, with K1V counted along it
Sequence of Bifidobacterium bifidum lactase, parent, SEQ ID NO: 1 (A4K5H9 entry or part of it): as the sequence (A4K5H9 entry or part of it V33K) above, with K1V counted along it
Sequence of Bifidobacterium bifidum lactase (SEQ ID NO: 1) variant V1F (A4K5H9 entry or part of it V33F): as the sequence (A4K5H9 entry or part of it V33K) above, with K1F counted along it
Sequence of Bifidobacterium bifidum lactase (SEQ ID NO: 1) variant V1D (A4K5H9 entry or part of it V33D): as the sequence (A4K5H9 entry or part of it V33K) above, with K1D counted along it

## OC[C@H]1OC(O)[C@H](O)[C@@H](O)[C@H]1O (stereo partly drawn) [D-(+)-Galactose]
[1]
  galactose inhibition improvement factor (GI-IF): 1.0
[2]
  GI-IF (galactose inhibition assay improvement factor): 1.17
[3]
  GI-IF (galactose inhibition assay improvement factor): 1.23
[4]
  GI-IF (galactose inhibition assay improvement factor): 1.25
[5]
  GI-IF (galactose inhibition assay improvement factor): 1.11
[6]
  GI-IF (galactose inhibition assay improvement factor): 1.12

## OC[C@H]1OC(O)[C@H](O)[C@@H](O)[C@H]1O (stereo partly drawn) [galactose, D-(+)-Galactose]
[7]
  Ki: 40.6 mM
[8]
  IF (Ki galactose inhibition, E856 vs. G856): 0.98
[9]
  Ki: 41.5 mM

## OC[C@H]1O[C@@H](O[C@H]2[C@H](O)[C@@H](O)C(O)O[C@@H]2CO)[C@H](O)[C@@H](O)[C@H]1O (stereo partly shown) [lactose]
[10]
  IF (Km, E856 vs. G856): 0.98
